Biological target: Replicase polyprotein 1ab (Severe acute respiratory syndrome coronavirus 2, UniProt P0DTD1)
Assay: Inhibition of recombinant SARS-CoV-2 Delta 3CL protease using Dabcyl-KTSAVLQSGFRKME-Edans as substrate preincubated for 30 mins followed by substrate addition and measured for 1 hr by fluorescence based microplate reader analysis

CCCCCCCCCCCCNC(=O)[C@@H](Cc1ccc(O)c(O)c1)OC(=O)/C=C/c1ccc(O)c(O)c1
IC50: 40.8 µM

CCc1cccc(NC(=O)[C@@H](Cc2ccc(O)c(O)c2)OC(=O)/C=C/c2ccc(O)c(O)c2)c1
IC50: 45.7 µM

Source: ChEMBL document CHEMBL5370560, “Isolation of Anti-SARS-CoV-2 Natural Products Extracted from Mentha canadensis and the Semi-synthesis of Antiviral Derivatives” (J Nat Prod, 2023)
